Source: patent publication EP2951180B1, “2,6,7,8 SUBSTITUTED PURINES AS HDM2 INHIBITORS” (Merck Sharp & Dohme Corp., priority 2013, dated 2014)
Like-named read-outs stand apart in the source and are kept apart here.

Target: T1, HDM2 (Homo sapiens, UniProt Q00987)
T1 construct: Thioredoxin (N); made in house; host or cells: E. coli strain BL21(DE3)Rosetta
Assay: HDM2 FRET assay (inhibition of binding of FITC labeled p53-pocket peptide to HDM2)
Settings: read-out: FRET IC50
Outline: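 TR-FRET with 0.5 nM His-tagged recombinant HDM2, 3 nM FITC-labelled p53 peptide and 0.25 nM Tb-anti-His antibody in PBS, 0.01% BSA, 0.01% Tween-20, 0.1% DMSO. IC50 from em520/em495 ratio over 10-point dilutions, 4-parameter logistic fit.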

[1] = 0.5 nM HDM2 (residues 17 to 125), 3nM peptide, two hour incubation at room temperature

T1 sequence (Q00987 17-125): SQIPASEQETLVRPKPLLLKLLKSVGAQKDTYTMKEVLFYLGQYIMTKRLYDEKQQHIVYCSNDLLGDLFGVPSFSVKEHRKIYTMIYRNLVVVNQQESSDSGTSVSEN

Cc1nnc([C@@H]2COCCN2c2nc3nc(-c4noc(=O)[nH]4)nc(-c4cccc(Cl)c4)c3n2C[C@H]2CC[C@H](C)CC2)o1 [Example 16.138, 3-{6-(3-chlorophenyl)-7-[(trans-4-methylcyclohexyl)methyl]-8-[(3S)-3-(5-methyl-1,3,4-oxadiazol-2-yl)morpholin-4-yl]-7H-purin-2-yl}-1,2,4-oxadiazol-5(4H)-one]
IC50 [1]: 0.0791 µM

CC(C)c1ccnc(-c2nc3nc(S(C)(=O)=O)nc(N[C@H](C)C4CCC4)c3n2C[C@H]2CC[C@H](C)CC2)c1 [Example 14.4, N-[(1R)-1-cyclobutylethyl]-7-[(trans-4-methylcyclohexyl)methyl]-8-[4-(1-methylethyl)pyridin-2-yl]-2-(methylsulfonyl)-7H-purin-6-amine]
IC50 [1]: 0.0724 µM

C[C@@H](Nc1nc(-c2noc(=O)[nH]2)nc2nc(C(O)C3CCCC3)n(C[C@H]3CC[C@H](C)CC3)c12)C1CCC1 (stereo partly drawn) [Example 22.41, 3-(6-{[(1R)-1-cyclobutylethyl]amino}-8-[cyclopentyl(hydroxy)methyl]-7-[(trans-4-methylcyclohexyl)methyl] -7H-purin-2-yl)-1,2,4-oxadiazol-5(2H)-one]
IC50 (Table 22): 0.00121 µM

CCN(CC1CCCCC1)c1nc2nc(-c3noc(=O)[nH]3)nc(N[C@H](C)C3CCC3)c2n1Cc1ccc(C(F)(F)F)cc1 [Example 9.95, 3-(6-{[(1R)-1-cyclobutylethyl]amino}-8-[(cyclohexylmethyl)(ethyl)amino]-7-[4-(trifluoromethyl)benzyl]-7H-purin-2-yl)-1,2,4-oxadiazol-5(4H)-one]
IC50 (Table 9): 0.0272 µM

C[C@@H](Nc1nc(N2CCC[C@@H]2C(=O)O)nc2nc(N3CCOC[C@H]3c3ccccc3)n(C[C@H]3CC[C@H](C)CC3)c12)C1CCC1 [Example 13.4, 1-(6-{[(1R)-1-cyclobutylethyl]amino}-7-[(trans-4-methylcyclohexyl)methyl]-8-[(3R)-3-phenylmorpholin-4-yl]-7H-purin-2-yl)-D-proline]
IC50 [1]: 0.0961 µM

C[C@H]1CC[C@H](Cn2c(N3CCOC[C@H]3c3ccccc3)nc3nc(-c4noc(=O)[nH]4)nc(-c4ccc(F)c(Cl)c4)c32)CC1 [Example 16.24, 3-{6-(3-chloro-4-fluorophenyl)-7-[(trans-4-methylcyclohexyl)methyl]-8-[(3R)-3-phenylmorpholin-4-yl]-7H-purin-2-yl}-1,2,4-oxadiazol-5(4H)-one]
IC50 [1]: 0.00562 µM

CC1CCCCN1c1nc2nc(-c3noc(=O)[nH]3)nc(N[C@H](C)C3CCC3)c2n1C[C@H]1CC[C@H](C)CC1 (stereo partly drawn) [Example 11.47, 3-[6-{[(1R)-1-cyclobutylethyl]amino}-7-[(trans-4-methylcyclohexyl)methyl]-8-(2-methylpiperidin-1-yl)-7H-purin-2-yl]-1,2,4-oxadiazol-5(4H)-one]
IC50 (Table 11): 0.00727 µM

CC(O)c1nc2nc(-c3noc(=O)[nH]3)nc(N[C@H](C)C3CCC3)c2n1C[C@H]1CC[C@H](C)CC1 (single isomer, unassigned) [Example 22.15]
IC50 (Table 22): 0.0451 µM

C[C@H]1CC[C@H](Cn2c(N3CCOC[C@H]3c3ccccc3)nc3nc(-c4noc(=O)[nH]4)nc(-c4cc(Cl)cc(CO)c4)c32)CC1 [Example 16.44, 3-{6-[3-chloro-5-(hydroxymethyl)phenyl]-7-[(trans-4-methylcyclohexyl)methyl]-8-[(3R)-3-phenylmorpholin-4-yl]-7H-purin-2-yl}-1,2,4-oxadiazol-5(4H)-one]
IC50 [1]: 0.000205 µM

C[C@@H](Nc1nc(-c2noc(=O)[nH]2)nc2nc(C(F)c3ccccc3)n(C[C@H]3CC[C@H](C)CC3)c12)C1CCC1 (stereo partly drawn) [Example 22.66, 3-(6-{[(1R)-1-cyclobutylethyl]amino}-8-[fluoro(phenyl)methyl]-7-[(trans-4-methylcyclohexyl)methyl] -7H-purin-2-yl)-1,2,4-oxadiazol-5(4H)-one]
IC50 (Table 22): 0.00712 µM

COC[C@@H]1COCCN1c1nc2nc(-c3noc(=O)[nH]3)nc(-c3cccc(Cl)c3)c2n1C[C@H]1CC[C@H](C)CC1 [Example 16.59, 3-{6-(3-chlorophenyl)-8-[(3R)-3-(methoxymethyl)mor pholin-4-yl]-7-[(trans-4-methylcyclohexyl)methyl]-7H-purin-2-yl}-1,2,4-oxadiazol-5(4H)-one]
IC50 [1]: 0.019 µM

CCN(CC)c1nc(C(=O)O)nc2nc(-c3cccc(C)c3)n(Cc3ccc(C(F)(F)F)cc3)c12 [Example 6.51, 6-(diethylamino)-8-(3-methylphenyl)-7-[4-(trifluoromethyl)benzyl]-7H-purine-2-carboxylic acid]
IC50 (Table 6): 4.6 µM

C[C@@H](Nc1nc(C(=O)O)nc2nc(N3CCOC[C@H]3c3ccccc3)n(C[C@H]3CC[C@H](C)CC3)c12)C1CCC1 [Example 11.10, 6-{[(1R)-1-cyclobutylethyl]amino}-7-[(trans-4-methylcyclohexyl)methyl]-8-[(3R)-3-phenylmorpholin-4-yl]-7H-purine-2-carboxylic acid]
IC50 (Table 11): 0.000202 µM

COCC1CN(c2nc3nc(C(=O)O)nc(N[C@H](C)C4CCC4)c3n2Cc2ccc(C(F)(F)F)cc2)CCO1 (stereo partly drawn) [Example 9.24, 6-{[(1R)-1-cyclobutylethyl]amino}-8-[2-(methoxymethyl)morpholin-4-yl]-7-[4-(trifluoromethyl)benzyl]-7H-purine-2-carboxylic acid]
IC50 (Table 9): 0.0729 µM

Cc1cccc(-c2nc(-c3noc(=O)[nH]3)nc3nc(N4CCOC[C@H]4C)n(C[C@H]4CC[C@H](C)CC4)c23)c1 [Example 16.28, 3-{7-[(trans-4-methylcyclohexyl)methyl]-8-[(3R)-3-methylmorpholin-4-yl]-6-(3-methylphenyl)-7H-purin-2-yl}-1,2,4-oxadiazol-5(4H)-one]
IC50 [1]: 0.0387 µM

C[C@@H](Nc1nc(C(=O)O)nc2nc(C(=O)Nc3ccccc3)n(Cc3ccc(C(F)(F)F)cc3)c12)C1CCC1 [Example 10.20, (R)-6-((1-Cyclobutylethyl)amino)-8-(phenylcarbamoyl)-7-(4-(trifluoromethyl)benzyl)-7H-purine-2-carboxylic acid]
IC50 (Table 10): 0.189 µM

CCC1=CCC(Cn2c(-c3cc(C(C)C)ccn3)nc3nc(C(=O)O)nc(N[C@H](C)C4CCC4)c32)CC1 (stereo partly drawn) [Example 18.24, 6-{[(1R)-1-cyclobutylethyl]amino}-7-[(4-ethylcyclohex-3-en-1-yl)methyl]-8-[4-(1-methylethyl)pyridin-2-yl]-7H-purine-2-carboxylic acid]
IC50 (Table 18): 0.0159 µM

C[C@@H](Nc1nc(-c2noc(=O)[nH]2)nc2nc(N(C)[C@@H]3CCCC[C@@H]3O)n(C[C@H]3CC[C@H](C)CC3)c12)C1CCC1 (stereo in doubt) [Example 11.134, 3-(6-{[(1R)-1-cyclobutylethyl]amino}-8-{[(1R,2S)-2-hydroxycyclohexyl] (methyl)amino}-7-[(trans-4-methylcyclohexyl)methyl]-7H-purin-2-yl)-1,2,4-oxadiazol-5(4H)-one]
IC50 (Table 11): 0.00946 µM

Cc1cccc(-c2nc3nc(C(=O)O)nc(NC4CCCCC4C)c3n2Cc2ccc(Br)cc2)c1 (stereo not drawn) [Example 6.10, 7-(4-bromobenzyl)-6-[(2-methylcyclohexyl)amino]-8-(3-methylphenyl)-7H-purine-2-carboxylic acid]
IC50 (Table 6): 1.04 µM

Cc1cccc(-c2nc3nc(C(=O)O)nc(NCC4CC4)c3n2Cc2ccc(C(F)(F)F)cc2)c1 [Example 6.36, 6-[(cyclopropylmethyl)amino]-8-(3-methylphenyl)-7-[4-(trifluoromethyl)benzyl]-7H-purine-2-carboxylic acid]
IC50 (Table 6): 0.67 µM

Cc1cccc(-c2nc3nc(C(=O)O)nc(N[C@@H](C)C4CCCCC4)c3n2Cc2ccc(C(F)(F)F)cc2)c1 [Example 6.45, 6-{[(1S)-1-cyclohexylethyl]amino}-8-(3-methylphenyl)-7-[4-(trifluoromethyl)benzyl]-7H-purine-2-carboxylic acid]
IC50 (Table 6): 1.61 µM

C[C@@H](Nc1nc(-c2noc(=O)[nH]2)nc2nc(C3CCCCC3c3ccccc3)n(C[C@H]3CC[C@H](C)CC3)c12)C1CCC1 (single isomer, unassigned) [Example 21.26]
IC50 (Table 21): 0.0216 µM

CCOC1(c2nc3nc(-c4noc(=O)[nH]4)nc(N[C@H](C)C4CCC4)c3n2C[C@H]2CC[C@H](C)CC2)CCC1 [Example 22.76, 3-(6-{[(1R)-1-cyclobutylethyl]amino}-8-(1-ethoxycyclobutyl)-7-[(trans-4-methylcyclohexyl)methyl] -7H-purin-2-yl)-1,2,4-oxadiazol-5(4H)-one]
IC50 (Table 22): 0.00422 µM

CCC1CCCCN1c1nc2nc(C(=O)O)nc(N[C@H](C)C3CCC3)c2n1C[C@H]1CC[C@H](C)CC1 (stereo partly drawn) [Example 11.52, 6-{[(1R)-1-cyclobutylethyl]amino}-8-(2-ethylpiperidin-1-yl)-7-[(trans-4-methylcyclohexyl)methyl]-7H-purine-2-carboxylic acid]
IC50 (Table 11): 0.00343 µM

C[C@@H](Nc1nc(C(=O)O)nc2nc(C(C)(C)c3ccccc3)n(C[C@H]3CC[C@H](C)CC3)c12)C1CCC1 [Example 20.2, 6-{[(1R)-1-cyclobutylethyl]amino}-7-[(trans-4-methylcyclohexyl)methyl]-8-(1-methyl-1-phenylethyl)-7H-purine-2-carboxylic acid]
IC50 (Table 20): 0.00345 µM

Cc1cccc(-c2nc3ncnc(N4CCC[C@@H]4C4CCC4)c3n2Cc2ccc(C(F)(F)F)cc2)c1 [Example 7.9, 6-[(2R)-2-cyclobutylpyrrolidin-1-yl]-8-(3-methylphenyl)-7-[4-(trifluoromethyl)benzyl]-7H-purine]
IC50 (Table 7): 4.48 µM

COc1ccc(C2CCCCN2c2nc3nc(C(=O)O)nc(N[C@H](C)C4CCC4)c3n2Cc2ccc(C(F)(F)F)cc2)cc1 (stereo partly drawn) [Example 9.70, 6-{[(1R)-1-cyclobutylethyl]amino}-8-[2-(4-methoxyphenyl)piperidin-1-yl]-7-[4-(trifluoromethyl)benzyl]-7H-purine-2-carboxylic acid]
IC50 (Table 9): 0.00929 µM
